biological target: PI3Kδ (p110δ/p85α) (Homo sapiens (Human), UniProt O00329); experiment: PI3Kδ scintillation proximity assay (Example A3); format: biochemical; details: 20 μM ATP, 20 μM PIP2, 4 nM PI3Kδ; read-out: PI3Kδ SPA IC50
Experimental: [γ-^33P]ATP (10 mCi/mL) was purchased from Perkin-Elmer (Waltham, Mass.). […] PI3Kδ (p110δ/p85α) was purchased from Millipore (Bedford, Mass.). ATP, MgCl2, DTT, EDTA, MOPS and CHAPS were purchased from Sigma-Aldrich (St. Louis, Mo.). Wheat Germ Agglutinin (WGA) YSi SPA Scintillation Beads was purchased from GE healthcare life sciences (Piscataway, N.J.).
The kinase reaction was conducted in polystyrene 384-well matrix white plate from Thermo Fisher Scientific in a final volume of 25 μL. Inhibitors were first diluted serially in DMSO and added to the plate wells before the addition of other reaction components. The final concentration of DMSO in the assay was 0.5%. The PI3K assays were carried out at room temperature in 20 mM MOPS, pH 6.7, 10 mM MgCl2, 5 mM DTT and CHAPS 0.03%. Reactions were initiated by the addition of ATP, the final reaction mixture consisted of 20 μM PIP2, 20 μM ATP, 0.2 μCi [γ-^33P]ATP, 4 nM PI3Kδ. […] 25 mM EDTA, 400 μM ATP. The final concentration of SPA beads was 1.0 mg/mL. After the plate sealing, plates were shaken overnight at room temperature and centrifuged at 1800 rpm for 10 minutes, the radioactivity of the product was determined by scintillation counting on Topcount (Perkin-Elmer). IC50 determination was performed by fitting the curve of percent control activity versus the log of the inhibitor concentration using the GraphPad Prism 3.0 software.

PI3Kδ (p110δ/p85α), sequence (O00329 whole entry): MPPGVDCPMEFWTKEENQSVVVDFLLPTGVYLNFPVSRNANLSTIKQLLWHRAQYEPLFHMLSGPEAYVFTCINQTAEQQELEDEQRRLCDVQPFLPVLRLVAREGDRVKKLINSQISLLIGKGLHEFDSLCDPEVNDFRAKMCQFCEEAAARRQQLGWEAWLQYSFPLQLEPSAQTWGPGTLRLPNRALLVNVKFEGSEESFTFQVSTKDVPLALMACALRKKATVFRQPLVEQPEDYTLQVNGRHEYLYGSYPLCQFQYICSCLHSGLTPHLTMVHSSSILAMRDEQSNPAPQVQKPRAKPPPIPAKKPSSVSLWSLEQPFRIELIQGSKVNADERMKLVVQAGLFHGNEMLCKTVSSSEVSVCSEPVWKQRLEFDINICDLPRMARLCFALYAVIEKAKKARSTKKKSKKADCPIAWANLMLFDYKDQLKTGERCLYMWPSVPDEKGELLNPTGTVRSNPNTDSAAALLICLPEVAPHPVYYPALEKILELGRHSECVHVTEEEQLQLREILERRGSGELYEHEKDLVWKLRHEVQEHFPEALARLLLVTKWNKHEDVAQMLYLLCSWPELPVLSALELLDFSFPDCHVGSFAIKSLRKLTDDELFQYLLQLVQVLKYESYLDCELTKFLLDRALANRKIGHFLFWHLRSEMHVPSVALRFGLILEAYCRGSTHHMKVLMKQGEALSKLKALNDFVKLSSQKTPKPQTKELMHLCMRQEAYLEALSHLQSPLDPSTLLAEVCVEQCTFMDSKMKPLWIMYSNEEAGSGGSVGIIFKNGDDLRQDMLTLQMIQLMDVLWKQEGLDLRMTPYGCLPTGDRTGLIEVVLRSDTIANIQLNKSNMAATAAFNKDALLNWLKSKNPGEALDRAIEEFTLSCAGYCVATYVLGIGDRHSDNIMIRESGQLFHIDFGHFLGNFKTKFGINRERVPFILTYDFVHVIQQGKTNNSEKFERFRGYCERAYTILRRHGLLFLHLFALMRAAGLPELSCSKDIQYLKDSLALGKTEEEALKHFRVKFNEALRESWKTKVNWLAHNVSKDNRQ
PI3Kδ (p110δ/p85α), sequence (P27986 whole entry partner): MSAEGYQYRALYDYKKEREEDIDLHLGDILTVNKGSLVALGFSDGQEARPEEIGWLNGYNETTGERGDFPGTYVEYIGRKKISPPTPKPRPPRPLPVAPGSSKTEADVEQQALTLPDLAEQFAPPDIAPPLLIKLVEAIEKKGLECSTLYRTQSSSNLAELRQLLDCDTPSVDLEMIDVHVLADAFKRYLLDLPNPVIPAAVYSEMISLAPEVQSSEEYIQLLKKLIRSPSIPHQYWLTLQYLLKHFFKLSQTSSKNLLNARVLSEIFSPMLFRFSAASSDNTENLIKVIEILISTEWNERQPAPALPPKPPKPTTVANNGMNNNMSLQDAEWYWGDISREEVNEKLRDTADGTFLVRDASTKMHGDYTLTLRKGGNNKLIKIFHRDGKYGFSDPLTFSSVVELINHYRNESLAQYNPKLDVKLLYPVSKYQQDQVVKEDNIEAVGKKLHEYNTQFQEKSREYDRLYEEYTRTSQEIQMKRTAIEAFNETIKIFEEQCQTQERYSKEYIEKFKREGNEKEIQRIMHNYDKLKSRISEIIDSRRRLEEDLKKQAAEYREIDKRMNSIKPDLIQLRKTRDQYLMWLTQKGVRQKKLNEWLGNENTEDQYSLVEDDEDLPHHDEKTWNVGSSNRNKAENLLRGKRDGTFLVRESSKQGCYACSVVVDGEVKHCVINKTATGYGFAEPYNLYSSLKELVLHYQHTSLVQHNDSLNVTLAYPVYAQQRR

| SMILES | IC50 [nM] |
| --- | --- |
| CCOc1c(C(C)n2nc(-c3ccc(F)cc3)c3c(N)ncnc32)cc(Cl)c(C)c1-c1ccc(C(=O)N(C)C)nc1 (racemic) [Example 55, 5-(3-{1-[4-amino-3-(4-fluorophenyl)-1H-pyrazolo[3,4-d]pyrimidin-1-yl]ethyl}-5-chloro-2-ethoxy-6-methylphenyl)-N,N-dimethylpyridine-2-carboxamide bis(trifluoroacetate)] | 10 to 50 |
| CCOc1c(C(C)n2nc(-c3ccc(C(=O)N(C)C)nc3)c3c(N)ncnc32)cc(Cl)c(C)c1-c1ccc(C(=O)N(C)C)nc1 (racemic) [Example 56, 5-{4-amino-1-[1-(5-chloro-3-{6-[(dimethylamino)carbonyl]pyridin-3-yl}-2-ethoxy-4-methylphenyl)ethyl]-1H-pyrazolo[3,4-d]pyrimidin-3-yl}-N,N-dimethylpyridine-2-carboxamide tris(trifluoroacetate)] | 10 to 50 |
| CCOc1c(C(C)n2nc(-c3cnc(N)nc3)c3c(N)ncnc32)cc(Cl)c(C)c1-c1ccc(C(=O)N(C)C)nc1 (racemic) [Example 58, 5-(3-{1-[4-amino-3-(2-aminopyrimidin-5-yl)-1H-pyrazolo[3,4-d]pyrimidin-1-yl]ethyl}-5-chloro-2-ethoxy-6-methylphenyl)-N,N-dimethylpyridine-2-carboxamide tris(trifluoroacetate)] | ≤ 10 |
| CCOc1c(C(C)n2nc(-c3ccncc3)c3c(N)ncnc32)cc(Cl)c(C)c1-c1ccc(C(=O)N(C)C)nc1 (racemic) [Example 60, 5-{3-[1-(4-amino-3-pyridin-4-yl-1H-pyrazolo[3,4-d]pyrimidin-1-yl)ethyl]-5-chloro-2-ethoxy-6-methylphenyl}-N,N-dimethylpyridine-2-carboxamide tris(trifluoroacetate)] | ≤ 10 |
| CCOc1c(C(C)n2nc(-c3cccnc3)c3c(N)ncnc32)cc(Cl)c(C)c1-c1ccc(C(=O)N(C)C)nc1 (racemic) [Example 61, 5-{3-[1-(4-amino-3-pyridin-3-yl-1H-pyrazolo[3,4-d]pyrimidin-1-yl)ethyl]-5-chloro-2-ethoxy-6-methylphenyl}-N,N-dimethylpyridine-2-carboxamide tris(trifluoroacetate)] | ≤ 10 |
| CCOc1c(C(C)n2nc(-c3cncc(C(=O)N(C)C)c3)c3c(N)ncnc32)cc(Cl)c(C)c1-c1ccc(C(=O)N(C)C)nc1 (racemic) [Example 62, 5-{3-[1-(4-amino-3-{5-[(dimethylamino)carbonyl]pyridin-3-yl}-1H-pyrazolo[3,4-d]pyrimidin-1-yl)ethyl]-5-chloro-2-ethoxy-6-methylphenyl}-N,N-dimethylpyridine-2-carboxamide tris(trifluoroacetate)] | ≤ 10 |
| COc1c(C(C)n2nc(C)c3c(N)ncnc32)cc(Cl)c(F)c1C1CN(CC(C)(C)O)C1 (racemic) [Example 70, 1-(3-{3-[1-(4-Amino-3-methyl-1H-pyrazolo[3,4-d]pyrimidin-1-yl)ethyl]-5-chloro-6-fluoro-2-methoxyphenyl}azetidin-1-yl)-2-methylpropan-2-ol] | ≤ 10 |
| COc1c(C(C)n2nc(C(F)F)c3c(N)ncnc32)cc(C#N)c(F)c1C1CN(CCO)C1 (racemic) [Example 78, 5-{1-[4-Amino-3-(difluoromethyl)-1H-pyrazolo[3,4-d]pyrimidin-1-yl]ethyl}-2-fluoro-3-[1-(2-hydroxyethyl)azetidin-3-yl]-4-methoxybenzonitrile] | ≤ 10 |
| CCOc1c(C(C)n2nc(CC)c3c(N)ncnc32)cc(Cl)c(C)c1-c1ccc(C(=O)N(C)C)nc1 (racemic) [Example 81, 5-{3-[1-(4-Amino-3-ethyl-1H-pyrazolo[3,4-d]pyrimidin-1-yl)ethyl]-5-chloro-2-ethoxy-6-methylphenyl}-N,N-dimethylpyridine-2-carboxamide] | 50 to 200 |
| CCOc1c(C(C)n2nc(CO)c3c(N)ncnc32)cc(Cl)c(C)c1-c1ccc(C(=O)N(C)C)nc1 (racemic) [Example 83, 5-(3-{1-[4-Amino-3-(hydroxymethyl)-1H-pyrazolo[3,4-d]pyrimidin-1-yl]ethyl}-5-chloro-2-ethoxy-6-methylphenyl)-N,N-dimethylpyridine-2-carboxamide bis(trifluoroacetate)] | ≤ 10 |
| CCOc1c(C(C)n2nc(CNC)c3c(N)ncnc32)cc(Cl)c(C)c1-c1ccc(C(=O)N(C)C)nc1 (racemic) [Example 84, 5-[3-(1-{4-Amino-3-[(methylamino)methyl]-1H-pyrazolo[3,4-d]pyrimidin-1-yl}ethyl)-5-chloro-2-ethoxy-6-methylphenyl]-N,N-dimethylpyridine-2-carboxamide tris(trifluoroacetate)] | 50 to 200 |
| CCOc1c(C(C)n2nc(CN(C)C)c3c(N)ncnc32)cc(Cl)c(C)c1-c1ccc(C(=O)N(C)C)nc1 (racemic) [Example 85, 5-[3-(1-{4-Amino-3-[(dimethylamino)methyl]-1H-pyrazolo[3,4-d]pyrimidin-1-yl}ethyl)-5-chloro-2-ethoxy-6-methylphenyl]-N,N-dimethylpyridine-2-carboxamide tris(trifluoroacetate)] | 50 to 200 |
| CCOc1c(C(C)n2nc(CF)c3c(N)ncnc32)cc(Cl)c(C)c1-c1ccc(C(=O)N(C)C)nc1 (racemic) [Example 86, 5-(3-{1-[4-Amino-3-(fluoromethyl)-1H-pyrazolo[3,4-d]pyrimidin-1-yl]ethyl}-5-chloro-2-ethoxy-6-methylphenyl)-N,N-dimethylpyridine-2-carboxamide bis(trifluoroacetate)] | ≤ 10 |
| CCOc1c(C(C)n2nc(C)c3c(N)ncnc32)cc(Cl)c(C)c1C1CN(CCO)C1 (racemic) [Example 95, 2-(3-{3-[1-(4-Amino-3-methyl-1H-pyrazolo[3,4-d]pyrimidin-1-yl)ethyl]-5-chloro-2-ethoxy-6-methylphenyl}azetidin-1-yl)ethanol bis(trifluoroacetate)] | ≤ 10 |
| COc1c(C(C)n2nc(-c3cnn(C)c3)c3c(N)ncnc32)cc(Cl)c(C)c1C1CN(CC#N)C1 (racemic) [Example 125, [3-(3-{1-[4-Amino-3-(1-methyl-1H-pyrazol-4-yl)-1H-pyrazolo[3,4-d]pyrimidin-1-yl]ethyl}-5-chloro-2-methoxy-6-methylphenyl)azetidin-1-yl]acetonitrile bis(trifluoroacetate)] | ≤ 10 |
| CCOc1c(C(C)n2nc(C)c3c(N)ncnc32)cc(Cl)c(F)c1C1CN(C)C1 (racemic) [Example 145, 1-{1-[5-Chloro-2-ethoxy-4-fluoro-3-(1-methylazetidin-3-yl)phenyl]ethyl}-3-methyl-1H-pyrazolo[3,4-d]pyrimidin-4-amine] | ≤ 10 |
| CCOc1c(C(C)n2nc(C)c3c(N)ncnc32)cc(Cl)c(F)c1C1CN(CC)C1 (racemic) [Example 146, 1-{1-[5-Chloro-2-ethoxy-3-(1-ethylazetidin-3-yl)-4-fluorophenyl]ethyl}-3-methyl-1H-pyrazolo[3,4-d]pyrimidin-4-amine] | ≤ 10 |
| CCOc1c(C(C)n2nc(C(F)F)c3c(N)ncnc32)cc(Cl)c(F)c1C1CN(C(C)C)C1 (racemic) [Example 150, 1-{1-[5-Chloro-2-ethoxy-4-fluoro-3-(1-isopropylazetidin-3-yl)phenyl]ethyl}-3-(difluoromethyl)-1H-pyrazolo[3,4-d]pyrimidin-4-amine] | ≤ 10 |
| CCOc1c(C(C)n2nc(C(F)F)c3c(N)ncnc32)cc(Cl)c(F)c1C1CN(C)C1 (racemic) [Example 151, 1-{1-[5-Chloro-2-ethoxy-4-fluoro-3-(1-methylazetidin-3-yl)phenyl]ethyl}-3-(difluoromethyl)-1H-pyrazolo[3,4-d]pyrimidin-4-amine] | ≤ 10 |
| CCOc1c(C(C)n2nc(C(F)F)c3c(N)ncnc32)cc(Cl)c(F)c1C1CN(CCO)C1 (racemic) [Example 152, 2-[3-(3-{-1-[4-Amino-3-(difluoromethyl)-1H-pyrazolo[3,4-d]pyrimidin-1-yl]ethyl}-5-chloro-2-ethoxy-6-fluorophenyl)azetidin-1-yl]ethanol] | ≤ 10 |
| CCOc1c(C(C)n2nc(C(F)F)c3c(N)ncnc32)cc(Cl)c(F)c1C1CN(CC(C)(C)O)C1 (racemic) [Example 153, 1-[3-(3-{1-[4-Amino-3-(difluoromethyl)-1H-pyrazolo[3,4-d]pyrimidin-1-yl]ethyl}-5-chloro-2-ethoxy-6-fluorophenyl)azetidin-1-yl]-2-methylpropan-2-ol] | ≤ 10 |
| CCOc1c(C(C)n2nc(C)c3c(N)ncnc32)cc(Cl)c(C#N)c1-c1ccc(-c2nnn(C)n2)nc1 (racemic) [Example 336, 4-[1-(4-amino-3-methyl-1H-pyrazolo[3,4-d]pyrimidin-1-yl)ethyl]-6-chloro-3-ethoxy-2-[6-(2-methyl-2H-tetrazol-5-yl)pyridin-3-yl]benzonitrile] | ≤ 10 |
| CCOc1c(C(C)n2nc(C)c3c(N)ncnc32)cc(Cl)c(C#N)c1N1CC(COC)C1 (racemic) [Example 341, 4-[1-(4-amino-3-methyl-1H-pyrazolo[3,4-d]pyrimidin-1-yl)ethyl]-6-chloro-3-ethoxy-2-[3-(methoxymethyl)azetidin-1-yl]benzonitrile] | ≤ 10 |

— patent US9707233B2, “Heterocyclylamines as PI3K inhibitors” (Incyte Corporation, priority 2011, dated 2017)
